Consider three compounds from publication PMC6353901, “Systematic characterization of position one variants within the lantibiotic nisin” (Scientific Reports, 2019).

Ends that are not written are not given here.

The test system of one series is NisP. The series is described as follows: Leader peptide cleavage of pre-nisin variants by NisP (RP-HPLC). Format: biochemical, Lactococcus lactis. The settings on record: in vitro cleavage of the leader peptide from purified pre-nisin (variant) by purified secreted NisP, overnight at 8 °C, integration of leader peptide peaks. The source says:
Step IV concerns leader peptide cleavage and thereby activation of the purified pre-nisin variants. Here, we used the secreted variant of the natural leader peptidase NisP, by which the leader peptide is cleaved in vitro and the cleavage efficiency (%) can be calculated as recently shown. We used an RP-HPLC set-up to monitor product formation, in which the appearance of the leader peptide in the chromatograms was used to determine the concentration of activated nisin (Supplementary Fig. S3). […] The nisin core peptide eluted at a later retention time of approximately 23 min (Supplementary Fig. S3). […] However, in the case of the I1 mutants I1A, I1G, I1T, I1S, I1K, I1R, I1H, I1Q, I1E, I1N and I1D) the formation of a core peptide peak in terms of a new and separated peak in the chromatogram was not observed (Supplementary Fig. S4). Rather, the peaks with a retention time between 18–21 min contained both species, the cleaved and non-cleaved lantibiotic, and can therefore not be deconvoluted for proper determination of the amount of activated nisin. […] The concentration was calculated based on a standard calibration curve (Supplementary Fig. S5), where we precisely determined the concentration of the activated nisin or I1 mutants. We used this concentration determination instead of the colorimetric protein concentration determination as for example Bradford or the BCA-assay since the latter two assays cannot differentiate between the activated and non-activated form of the secreted variants. Since nisin is not active unless the leader is cleaved off, the determination of the area of the leader peak to calculate the amount of the activated lantibiotic directly relates to the antimicrobial activity without need to further purify the peptide after cleavage.
All I1 mutations were subjected to NisP cleavage and most of the variants were cleaved, but a strong influence of the nature of the I1 substitutions with respect to cleavage efficiency was observed (Supplementary Fig. S6). The cleavage efficiency for wild type pre-nisin A was 94.3 ± 1.7% but lower for the mutants I1M, I1L, I1A and I1V (72.3 ± 1.4%, 72.4 ± 1.3%, 81.0 ± 1.8% and 58.1± 2.8%, respectively). […] This holds especially in those cases, where the amino acid at position one was exchanged to a charged amino acid (e.g. I1K 9.2 ± 1.3%; I1E 9.5 ± 0.7%) or contained a bulky hydrophobic side chain (e.g. I1F 12.9 ± 0.8%; I1W 5.7 ± 0.2%; I1Y 22.6 ± 2.3%) (Supplementary Fig. S6). […] Even after an extensive prolongation of the incubation time, no leader peptide peak was detected in the RP-HPLC chromatogram (Supplementary Fig. S4). It is important to stress in this context that the cleavage efficiencies cannot be determined from Tricine-SDS gels (20%). Here, the leader peptide as well as the core peptide would co-migrate, which obviously will falsify the staining results.
Pre-nisin and its variants were expressed and purified as previously described[41],[49],[69]. The purity of pre-nisin and its variants was controlled by Tricine-SDS-PAGE (20%)[70]. The activation of all variants was performed by NisP cleavage overnight at 8 °C. Pre-nisin cleavage and its variants was monitored by RP-HPLC[49],[69].
Pre-nisin and the activated nisin variants were analysed by RP-HPLC (Agilent Technologies 1260 Infinity II) with a LiChrospher WP 300 RP-18 end-capped column and an acetonitrile/water solvent system. The cleavage efficiency and the concentration of active lantibiotic was calculated as described previously[49],[69].

The conditions of series [1]: pre-lantibiotic in contrast to nisin; cited from earlier work. Here is the method: As an advantage any lantibiotic can be produced as a pre-lantibiotic. […] Normally, we observed yields for the pre-nisin and its variants of 3–6 mg per liter cell culture supernatant after purificatio ...

Consider “wild type pre-nisin A: leader-containing, fully modified precursor of nisin A, not yet activated by NisP (MSTKDFNLDLVSVSKKDSGASPRITSISLCTPGCKTGALMGCNMKTATCHCSIHVSK; thioether (positions not given here); not fully specified (some residues, bridges); also: fully post-translationally modified, places not given here; UniProt P13068 1-57, looked up) [reference compound]”, for which the “cleavage efficiency by NisP” value in the series with NisP is reported as 94.3 ± 1.7%. For the same compound, the pH stability result in series [1] is listed as “higher pH stability”.

For the compound `C=C(NC(=O)[C@@H](NC(=O)[C@H](Cc1c[nH]cn1)NC(=O)[C@@H](NC(=O)[C@H](CO)NC(=O)[C@@H]1CS[C@@H](C)[C@H]2NC(=O)[C@H](C)NC(=O)[C@H](NC(=O)[C@H](CCCCN)NC(=O)[C@H](CCSC)NC(=O)[C@H](CC(N)=O)NC(=O)[C@@H]3CS[C@@H](C)[C@@H](NC(=O)[C@H](CCCCN)NC(=O)[C@@H]4CS[C@@H](C)[C@@H](NC(=O)[C@@H]5CSC[C@@H](NC(=O)/C(=C/C)NC(=O)[C@@H](N)CC(C)C)C(=O)N[C@@H]([C@@H](C)CC)C(=O)NC(=C)C(=O)N[C@@H](CC(C)C)C(=O)N5)C(=O)N5CCC[C@H]5C(=O)NCC(=O)N4)C(=O)NCC(=O)N[C@@H](C)C(=O)N[C@@H](CC(C)C)C(=O)N[C@@H](CCSC)C(=O)NCC(=O)N3)[C@H](C)SC[C@H](NC2=O)C(=O)N[C@@H](Cc2c[nH]cn2)C(=O)N1)[C@@H](C)CC)C(C)C)C(=O)N[C@@H](CCCCN)C(=O)O` [I1L], the “cleavage efficiency by NisP” value with NisP is on record as 72.4 ± 1.3%.

As to `C=C(NC(=O)[C@@H](NC(=O)[C@H](Cc1c[nH]cn1)NC(=O)[C@@H](NC(=O)[C@H](CO)NC(=O)[C@@H]1CS[C@@H](C)[C@H]2NC(=O)[C@H](C)NC(=O)[C@H](NC(=O)[C@H](CCCCN)NC(=O)[C@H](CCSC)NC(=O)[C@H](CC(N)=O)NC(=O)[C@@H]3CS[C@@H](C)[C@@H](NC(=O)[C@H](CCCCN)NC(=O)[C@@H]4CS[C@@H](C)[C@@H](NC(=O)[C@@H]5CSC[C@@H](NC(=O)/C(=C/C)NC(=O)[C@@H](N)CCSC)C(=O)N[C@@H]([C@@H](C)CC)C(=O)NC(=C)C(=O)N[C@@H](CC(C)C)C(=O)N5)C(=O)N5CCC[C@H]5C(=O)NCC(=O)N4)C(=O)NCC(=O)N[C@@H](C)C(=O)N[C@@H](CC(C)C)C(=O)N[C@@H](CCSC)C(=O)NCC(=O)N3)[C@H](C)SC[C@H](NC2=O)C(=O)N[C@@H](Cc2c[nH]cn2)C(=O)N1)[C@@H](C)CC)C(C)C)C(=O)N[C@@H](CCCCN)C(=O)O` [I1M], in the series with NisP, the “cleavage efficiency by NisP” value is 72.3 ± 1.4%.
